According to patent US4489163A, “rCRF and analogs” (The Salk Institute for Biological Studies, priority 1983, dated 1984):
Where a SMILES comes first, the peptide text is derived from it. [ ]: non-standard residue; d: D form. The star is where a group is joined. Nle = CCCC[C@H](N)C(=O)O; Bz = O=C(c1ccccc1)*

What was measured:
[1] = test system: ACTH and β-endorphin-like (β-END-LI) secretion; experiment: ACTH and β-END-LI secretion in vivo after intravenous administration; design: species or system rats; conditions: for stimulation of secretion of ACTH and β-END-LI: general procedure of Example III, in vitro or in vivo not stated
Source text: (§1) The synthetic and the natural rCRF were examined for their effects on the secretion of ACTH and β-endorphin in vitro and the synthetic rCRF was also examined in vivo.

[2] = lowering of blood pressure in rats; assay type: in vivo; conditions: for lowering of blood pressure compared with rCRF: relative to rCRF, species not stated; for lowering of blood pressure: species not given, general procedure of Example III
[3] = test system: cultured rat pituitary cells; experiment: secretion of ACTH and β-endorphin by cultured rat pituitary cells in vitro; assay type: cell-based; conditions: in vitro
Source text: as §1

[4] = test system: secretion of ACTH and β-endorphin; conditions: reported; cited from earlier work
[5] = mammals; reported; cited from earlier work

Compound | stimulation of secretion of ACTH and β-END-LI [1] | lowering of blood pressure [2] | other results
H-SEEPPISLDLTFELLREVLEVARAEQLAQQAHSNRKLMEII-NH2 [IX] | stimulates the secretion of ACTH and β-END-LI | very significant lowering of blood pressure | lowering of blood pressure compared with rCRF [2]: to a great extent than rCRF
Ac-PPISLDLTFHLLREVLEMARAEQLAQQAHSNRKLMDII-NH2 [XIII] | stimulates the secretion of ACTH and β-END-LI | very significant lowering of blood pressure | lowering of blood pressure compared with rCRF [2]: to a greater extent than rCRF
CC[C@H](C)[C@H](NC(=O)[C@@H](NC(=O)[C@H](CC(=O)O)NC(=O)[C@H](CC(C)C)NC(=O)[C@H](CC(C)C)NC(=O)[C@H](CC(C)C)NC(=O)[C@H](CCCNC(=N)N)NC(=O)[C@H](CC(N)=O)NC(=O)[C@H](CC(N)=O)NC(=O)[C@H](C)NC(=O)[C@H](C)NC(=O)[C@H](CCC(N)=O)NC(=O)[C@H](CCC(N)=O)NC(=O)[C@H](CCCCN)NC(=O)[C@H](CCC(=O)O)NC(=O)[C@H](CCCCN)NC(=O)[C@H](CCC(=O)O)NC(=O)[C@H](CCC(N)=O)NC(=O)[C@H](CCCCN)NC(=O)[C@H](CCCNC(=N)N)NC(=O)[C@H](C)NC(=O)[C@H](CCC(=O)O)NC(=O)[C@@H](NC(=O)[C@H](CCSC)NC(=O)[C@H](CCCCN)NC(=O)[C@H](CCCNC(=N)N)NC(=O)[C@H](CC(C)C)NC(=O)[C@H](CC(C)C)NC(=O)[C@H](CCC(=O)O)NC(=O)[C@H](CC(C)C)NC(=O)[C@H](CO)NC(=O)[C@H](CC(C)C)NC(=O)[C@H](CC(=O)O)NC(=O)[C@@H](NC(=O)[C@H](CO)NC(=O)[C@@H](NC(=O)[C@@H]1CCCN1C(=O)[C@@H]1CCCN1C(=O)CNC(=O)[C@@H]1CCC(=O)N1)[C@@H](C)CC)[C@@H](C)CC)[C@@H](C)CC)[C@@H](C)CC)C(N)=O [XVII] | stimulates the secretion of ACTH and β-END-LI | very significant lowering of blood pressure | 
H-SEEPPISLDLTFHLLREVAEMTRAEQLAQQAHSNRKLMEII-NH2 [VII] | stimulates the secretion of ACTH and β-END-LI | very significant lowering of blood pressure | 
H-SEEPPISLDLTFHLLREVLEAARAEQLAQQAHSNRKLLEI[Nle]-NH2 [XI] | stimulates the secretion of ACTH and β-END-LI | very significant lowering of blood pressure | 
H-PPISIDLSLELLRKMIEIAKQEKEKQQAANNRLLMDTI-NH2 [XVI] | stimulates the secretion of ACTH and β-END-LI | very significant lowering of blood pressure | 
CC[C@H](C)[C@H](NC(=O)[C@@H](NC(=O)[C@H](CCC(=O)O)NC(=O)[C@H](CCSC)NC(=O)[C@H](CC(C)C)NC(=O)[C@H](CCCCN)NC(=O)[C@H](CCCNC(=N)N)NC(=O)[C@H](CC(N)=O)NC(=O)[C@H](CO)NC(=O)[C@H](Cc1c[nH]cn1)NC(=O)[C@H](C)NC(=O)[C@H](CCC(N)=O)NC(=O)[C@H](CCC(N)=O)NC(=O)[C@H](C)NC(=O)[C@H](CC(C)C)NC(=O)[C@H](CCC(N)=O)NC(=O)[C@H](CCC(=O)O)NC(=O)[C@H](C)NC(=O)[C@H](CCCNC(=N)N)NC(=O)[C@H](C)NC(=O)[C@H](CCSC)NC(=O)[C@H](CCC(=O)O)NC(=O)[C@H](CC(C)C)NC(=O)[C@@H](NC(=O)[C@H](CCC(=O)O)NC(=O)[C@H](CCCNC(=N)N)NC(=O)[C@H](CC(C)C)NC(=O)[C@H](CC(C)C)NC(=O)[C@H](Cc1c[nH]cn1)NC(=O)[C@H](Cc1ccccc1)NC(=O)[C@@H](NC(=O)[C@H](CC(C)C)NC(=O)[C@H](CC(=O)O)NC(=O)[C@H](CC(C)C)NC(=O)[C@H](CO)NC(=O)[C@@H](NC(=O)[C@@H]1CCCN1C(=O)[C@@H]1CCCN1C(=O)[C@H](CCC(=O)O)NC(=O)[C@H](CCC(=O)O)NC(=O)[C@@H](N)CO)[C@@H](C)CC)[C@@H](C)O)C(C)C)[C@@H](C)CC)C(N)=O [natural rCRF] |  |  | stimulation of secretion of ACTH and β-endorphin in vitro [3]: high potency; stimulation of secretion of ACTH and β-endorphin in vitro ([3]; listed as isolated rCRF): stimulate ACTH and β-endorphin activies; stimulation of ACTH and β-END-LI secretion in vivo (words) ([1]; in vivo, several rat preparations, listed as isolated rCRF): stimulate ACTH and β-endorphin activies
CC[C@H](C)[C@H](NC(=O)[C@@H](NC(=O)[C@H](CC(=O)O)NC(=O)[C@H](CC(C)C)NC(=O)[C@H](CC(C)C)NC(=O)[C@H](CC(C)C)NC(=O)[C@H](CCCNC(=N)N)NC(=O)[C@H](CC(N)=O)NC(=O)[C@H](CC(N)=O)NC(=O)[C@H](C)NC(=O)[C@H](C)NC(=O)[C@H](CCC(N)=O)NC(=O)[C@H](CCC(N)=O)NC(=O)[C@H](CCCCN)NC(=O)[C@H](CCC(=O)O)NC(=O)[C@H](CCCCN)NC(=O)[C@H](CCC(=O)O)NC(=O)[C@H](CCC(N)=O)NC(=O)[C@H](CCCCN)NC(=O)[C@H](CCC(=O)O)NC(=O)[C@@H](NC(=O)[C@H](CCC(=O)O)NC(=O)[C@@H](NC(=O)[C@H](CCSC)NC(=O)[C@H](CCCCN)NC(=O)[C@H](CCCNC(=N)N)NC(=O)[C@H](CC(C)C)NC(=O)[C@H](CC(C)C)NC(=O)[C@H](CCC(=O)O)NC(=O)[C@H](CC(C)C)NC(=O)[C@H](CO)NC(=O)[C@H](CC(C)C)NC(=O)[C@H](CC(=O)O)NC(=O)[C@@H](NC(=O)[C@H](CO)NC(=O)[C@@H](NC(=O)[C@@H]1CCCN1C(=O)[C@@H]1CCCN1C(=O)CNC(=O)[C@@H]1CCC(=O)N1)[C@@H](C)CC)[C@@H](C)CC)[C@@H](C)CC)[C@@H](C)CC)[C@@H](C)O)C(N)=O [Sauvagine] |  |  | biological activity in stimulating the secretion of ACTH and β-endorphin [4]: stimulating the secretion of ACTH and β-endorphin; biological activity in lowering blood pressure [5]: biological activity in lowering blood pressure in mammals
H-SQEPPISLDLTFHLLREVLEMAKAEQLAQQAHSNRKLLEII-NH2 [XIV] | stimulates the secretion of ACTH and β-END-LI | very significant lowering of blood pressure | 
H-SEEPPISLDLTFHLLREVLE[Nle]ARAEQLAQQAYSNRKLMEII-NH2 [XV] | stimulates the secretion of ACTH and β-END-LI | very significant lowering of blood pressure | lowering of blood pressure compared with rCRF [2]: to a greater extent than rCRF
CC[C@H](C)[C@H](NC(=O)[C@@H](NC(=O)[C@H](CC(=O)O)NC(=O)[C@H](CCSC)NC(=O)[C@H](CC(C)C)NC(=O)[C@H](CC(C)C)NC(=O)[C@H](CCCNC(=N)N)NC(=O)[C@H](CC(N)=O)NC(=O)[C@H](CC(N)=O)NC(=O)[C@H](C)NC(=O)[C@H](C)NC(=O)[C@H](CCC(N)=O)NC(=O)[C@H](CCC(N)=O)NC(=O)[C@H](CCCCN)NC(=O)[C@H](CC(C)C)NC(=O)[C@H](CCCCN)NC(=O)[C@H](CCC(=O)O)NC(=O)[C@H](CCC(N)=O)NC(=O)[C@H](CCCCN)NC(=O)[C@H](CCC(=O)O)NC(=O)[C@@H](NC(=O)[C@H](CCC(=O)O)NC(=O)[C@@H](NC(=O)[C@H](CCSC)NC(=O)[C@H](CCCCN)NC(=O)[C@H](CCCNC(=N)N)NC(=O)[C@H](CC(C)C)NC(=O)[C@H](CC(C)C)NC(=O)[C@H](CCC(=O)O)NC(=O)[C@H](CC(C)C)NC(=O)[C@H](CO)NC(=O)[C@H](CC(C)C)NC(=O)[C@H](CC(=O)O)NC(=O)[C@@H](NC(=O)[C@H](CO)NC(=O)[C@@H](NC(=O)[C@@H]1CCCN1C(=O)[C@@H]1CCCN1C(=O)CNC(=O)[C@@H]1CCC(=O)N1)[C@@H](C)CC)[C@@H](C)CC)[C@@H](C)CC)[C@@H](C)CC)[C@@H](C)O)C(N)=O [XVIII] | stimulates the secretion of ACTH and β-END-LI | very significant lowering of blood pressure | 
CCCC[C@H](NC(=O)[C@@H](NC(=O)[C@H](CC(C)C)NC(=O)[C@H](CC(=O)O)NC(=O)[C@H](CC(C)C)NC(=O)[C@H](CO)NC(=O)[C@@H](NC(=O)[C@@H]1CCCN1C(=O)[C@@H]1CCCN1C(=O)[C@H](CCC(=O)O)NC(=O)CNC(=O)c1ccccc1)[C@@H](C)CC)[C@@H](C)O)C(=O)N[C@@H](Cc1c[nH]cn1)C(=O)N[C@@H](CC(C)C)C(=O)N[C@@H](CC(C)C)C(=O)N[C@@H](CCCNC(=N)N)C(=O)N[C@@H](CCC(=O)O)C(=O)N[C@H](C(=O)N[C@@H](CC(C)C)C(=O)N[C@@H](CCC(=O)O)C(=O)N[C@@H](CCSC)C(=O)N[C@@H](C)C(=O)N[C@@H](CCCNC(=N)N)C(=O)N[C@@H](C)C(=O)N[C@@H](CCC(=O)O)C(=O)N[C@@H](CCC(N)=O)C(=O)N[C@@H](CC(C)C)C(=O)N[C@@H](C)C(=O)N[C@@H](CCC(N)=O)C(=O)N[C@@H](CCC(N)=O)C(=O)N[C@@H](C)C(=O)N[C@@H](Cc1c[nH]cn1)C(=O)N[C@@H](CO)C(=O)N[C@@H](CC(N)=O)C(=O)N[C@@H](CCCNC(=N)N)C(=O)N[C@@H](CCCCN)C(=O)N[C@@H](CC(C)C)C(=O)N[C@@H](CCSC)C(=O)N[C@@H](CCC(=O)O)C(=O)N[C@H](C(=O)N[C@H](C(N)=O)[C@@H](C)CC)[C@@H](C)CC)C(C)C [XII] (Bz-GEPPISLDLT[Nle]HLLREVLEMARAEQLAQQAHSNRKLMEII-NH2) | stimulates the secretion of ACTH and β-END-LI | very significant lowering of blood pressure | 
H-SEEPPIS[Nle]DLSFHLLREVLEMARAEQLAQQAHLNRKLMEII-NH2 [X] | stimulates the secretion of ACTH and β-END-LI | very significant lowering of blood pressure | 
